{"source": "paper PMC7408066", "about": "“Attenuation of Inflammatory Symptoms by Icariside B2 in Carrageenan and LPS-Induced Inflammation Models via Regulation of MAPK/NF-κB Signaling Cascades” (Biomolecules, 2020)", "target": "T1, COX-2 (Ovis aries, UniProt P79208)", "T1 construct": "gene PTGS2; ovine purified COX-2", "T1 sequence (P79208 17-603)": "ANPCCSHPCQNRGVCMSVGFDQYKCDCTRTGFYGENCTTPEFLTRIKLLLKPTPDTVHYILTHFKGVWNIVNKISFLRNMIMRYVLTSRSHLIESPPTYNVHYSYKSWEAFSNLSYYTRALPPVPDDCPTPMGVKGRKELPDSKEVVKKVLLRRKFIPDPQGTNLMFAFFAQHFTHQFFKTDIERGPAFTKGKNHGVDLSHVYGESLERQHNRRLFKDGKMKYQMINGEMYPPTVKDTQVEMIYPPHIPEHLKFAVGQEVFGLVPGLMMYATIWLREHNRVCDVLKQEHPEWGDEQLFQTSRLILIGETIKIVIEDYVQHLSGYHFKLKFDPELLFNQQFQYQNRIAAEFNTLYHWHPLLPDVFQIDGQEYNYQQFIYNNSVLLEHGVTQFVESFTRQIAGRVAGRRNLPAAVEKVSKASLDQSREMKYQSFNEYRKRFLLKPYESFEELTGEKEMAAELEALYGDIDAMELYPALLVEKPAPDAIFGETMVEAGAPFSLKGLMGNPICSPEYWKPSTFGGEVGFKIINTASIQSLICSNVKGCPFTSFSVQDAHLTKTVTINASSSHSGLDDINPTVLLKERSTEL", "assay": "Cayman colorimetric COX (ovine) inhibitor screening assay, purified enzyme", "format": "biochemical"}
{"compound": "CC(=O)/C=C/C12OC1(C)CC(OC1OC(CO)C(O)C(O)C1O)CC2(C)C", "note": "(stereo not shown) [ICSB, icariside B2]", "values": [{"measurement": "IC50", "result": "7.8 ± 0.26", "unit": "µM"}]}
